Assay results taken from US11066379B2 (THE TEXAS A&M UNIVERSITY SYSTEM, priority 2018, dated 2021).
“And” between values parts separate entries of the source, which are not always exact repeats. Equal values may be shown once. Read-outs that look alike come from different tables or passages of the source.

How the values were obtained:
SH-SY5Y cells [1] = test: Glutathione assay (Thiol Tracker Violet) after H2O2; type: cell-based, human; details: 150 μM H2O2 co-treatment 6 h, two or more concentrations
Description: Glutathione (GSH) levels were determined using Thiol Tracker Violet dye, which reacts with reduced thiols in cells. Reduced glutathione represents the majority of intracellular free thiols, so this probe can be used to estimate its levels in cells. Measurements were performed following manufacturer's protocol. Cells were seeded in 96-well plates at 2.5×10^5 cells/mL for 24 h and treated with compounds at various concentrations (1 μM→1 nM) and 150 μM H2O2. After 6 h, SH-SY5Y cells were washed twice with PBS and loaded with 100 μL of prewarmed Thiol Tracker Violet dye (10 μM) for 30 min at 37° C. The fluorescence was measured at 404 nm excitation and emission at 526 nm. All experiments were performed four times.

[2] = target: T1, active human CypA protein (Homo sapiens, UniProt P62937); test: Binding to immobilized CypA by surface plasmon resonance (SPR); details: for immunosuppressive activity (SAR profile, FIG. 2): in words, CypA binding / IL-2 inhibition
T1 construct: Active human CypA full-length protein was from Abcam; purchased Abcam
Description: Sensor surface activation and ligand immobilization were performed by using HBS-EP as running buffer at a flow rate of 5 μL/min and 25° C. CM5 sensor chips were used as surface where Cyp A or D was immobilized as ligand. The CM5 chip is a glass slide coated with a thin layer of gold with a matrix of carboxymethylated dextran covalently attached. The CM5 chip was activated using an amine coupling kit. […] After activation, the ligand, 100 μg/mL of active human CypA protein dissolved in sodium acetate 10 mM at pH 4.5 was added to be immobilized over a CM5 sensor chip. Finally ethanolamine-HCl was injected to deactivate the remaining active esters and to avoid non-specific binding. […] Once analytes were tested and interaction was observed, individual binding curves were analyzed by determining the kinetic constants of analytes-CypA binding, namely, the observed rate constant (Kobs), the association rate constant (Kass), the dissociation rate constant (Kdiss), and the kinetic equilibrium dissociation constant (KD). At equilibrium, by definition, […]. The pseudo-first order association rate constants Kobs (s^-1) were determined for each compound concentration by using the 1:1 Langmuir association model of BiaEvaluation software (BiaCore, Uppsala, Sweden). Then a representation of Kobs against the corresponding concentration of each compound was done. […] From the equation of these representations, Kass, M^-1 s^-1, gradient of the plot, and […]^-1, intercept of the plot was obtained. Within these two values, the kinetic equilibrium dissociation constant KD for each analyte-CypA binding was obtained. The duration of the sample injection was 2 min at 10 μL/min flow rate. Next, dissociation of bound molecules in HBS-EP buffer flow was studied. The bound drugs were removed from the chip surface before the next injection by adding 1 M Glycine-HCl at pH 2.5 for 1 min. The association phase was used to quantify the compound-CypA or D interactions. All experiments were performed four times.

SH-SY5Y cells [3] = test: Cellular toxicity in SH-SY5Y cells (MTT, 24 h); type: cell-based; details: for cytotoxicity toward SH-SY5Y cells: 10-0.01 μM, in words; for IC50: Homo sapiens, SH-SY5Y, read-out: IC50 (cellular toxicity)
Source text: The MTT (3-[4,5-dimethylthiazol-2-yl]-2,5-diphenyltetrazoliumbromide) assay was used to determine the cytotoxicity of gracilin derivatives in T lymphocytes (Burton, J. D. Methods Mol. Med., 2005, 110, 69-78) and SH-SY5Y cells and the protective effect of these compounds against H2O2 insult in neuroblastoma cells as previously described (Leiros, M., Alonso, E., Sanchez, J. A., Rateb, M. E., Ebel, R., Houssen, W. E., Jaspars, M., Alfonso, A. and Botana, L. M. ACS Chem. Neurosci., 2014, S, 71-80). Human T lymphocytes were cultured in 24 well plates at the concentration of 2.5×10^6 cells/mL and exposed to different compound concentrations (0.01, 0.1, 1 and 10 μM) added to the culture medium. Human T cells were maintained in the presence of the pure compound at 37° C. in humidified 5% CO2/95% air atmosphere for 48 h.
SH-SY5Y cells were seeded in 96-well plates at a density of 2.5×10^5 cells/mL and allowed to adhere for 24 h. At first, cells were treated only with compounds at concentrations ranging from 10-0.01 μM for 24 h to determine their possible cytotoxic effects. Experiments were carried out three times. For neuroprotective experiments, cells were treated with compounds at non-toxic concentrations (1 μM→1 nM) and 150 μM H2O2 for 6 h. Briefly, cells were washed three times with saline solution and 200 μL of MTT (500 μg/mL) dissolved in saline buffer were added to each well. Following 1 h of incubation at 37° C., the cells were disaggregated with sodium dodecyl sulphate at 5%.
Absorbance of formazan crystals was measured at 595 nm with a spectrophotometer plate reader. Saponin was used as death control and its absorbance was subtracted from the other data. All experiments were performed four times.

[4] = test system: mitochondrial membrane permeability transition pore (mPTP) in SH-SY5Y cells; test: Mitochondrial membrane permeability transition pore (mPTP) measurement, TBHP-induced opening; type: cell-based, human; details: 1 mM TBHP
Description: The blockage of mPTP by compounds was determined with the MitoProbe Transition Assay Kit following manufacturer's instructions. Briefly, SH-SY5Y human neuroblastoma cells were re-suspended in pre-warmed PBS/Ca^+2 buffer at a final concentration of 1×10^6 cells/mL. Cells were loaded with 0.01 μM Calcein-AM and incubated at 37° C. for 15 min. Then, 0.4 mM CoCl2 and compounds at selected concentrations were added and incubated for 15 min at 37° C. […] After this incubation, cells were centrifuged and re-suspended in 100 μL of PBS. Just before analyzing, 1 mM tert-butyl hydroperoxide (TBHP) was added to the samples to induce pore opening. Fluorescence intensity was measured at 488 nm excitation and 517 nm emission wavelengths by flow cytometry using the ImageStreamMKII (Amnis Corporation, Merck-Millipore) and […] software. The fluorescence of 10,000 events was analyzed with IDEASR Application vs 6.0 (Amnis Corporation, Merck-Millipore). Experiments were carried out four times.

T1 sequence (P62937 whole entry): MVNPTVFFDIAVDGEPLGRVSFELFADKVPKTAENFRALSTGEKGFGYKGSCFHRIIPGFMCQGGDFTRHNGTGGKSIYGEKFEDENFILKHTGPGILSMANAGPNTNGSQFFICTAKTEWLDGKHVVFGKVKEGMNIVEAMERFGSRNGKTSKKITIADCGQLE

| SMILES | GSH levels (SH-SY5Y cells [1]) | immunosuppressive activity (SAR profile, FIG. 2) [2] | cytotoxicity toward SH-SY5Y cells (SH-SY5Y cells [3]; 24 h) | IC50 (SH-SY5Y cells [3]; 24 h incubation) [µM] | mPTP opening [4] | Kd ([2]; SPR, immobilized CypA) | IC50 (SH-SY5Y cells [3]; 24 h) [µM] |
| --- | --- | --- | --- | --- | --- | --- | --- |
| CC(=O)O[C@H]1O[C@@H](OC(C)=O)[C@@H]2CC[C@](O)(C3(C)CCCC(C)(C)C3)C[C@H]12 (stereo partly drawn) [Compound 22, (1S,3R,3aS,5R,7aR)-5-hydroxy-5-(1,3,3-trimethylcyclohexyl)octahydroisobenzo-furan-1,3-diyl diacetate] | recovered GSH levels | inactive | led to cell death at the higher concentrations tested | 6.5 | prevent TBHP-induced opening | – | – |
| CC(=O)O[C@@H]1OC[C@H]2C=C(C3(C)CCCCC3)CC[C@@H]12 [Compound 27a, (1S,3aS,7aR)-5-(1-methylcyclohexyl)-1,3,3a,6,7,7a-hexahydroisobenzofuran-1-yl acetate] | recovered GSH levels | inactive | led to cell death at the higher concentrations tested | – | prevent TBHP-induced opening | – | – |
| CC(=O)O[C@H]1OC[C@@H]2C=C([C@@]3(C)CCCC(C)(C)C3)CC[C@H]12 [Compound 29a, (1R,3aR,7aS)-5-(1,3,3-trimethylcyclohexyl)-1,3,3a,6,7,7a-hexahydroisobenzofuran-1-yl acetate] | recovered GSH levels | – | led to cell death at the higher concentrations tested | – | prevent TBHP-induced opening | ~3 µM and 2.8 to 6.8 µM | 16.5 |
